Assay results as given in patent US20250382305A1 (PTC THERAPEUTICS, INC., priority 2022, published 2025).

Key:
[1] = system: Total ATXN3 (tATXN3) protein; assay: Endogenous Total ATXN3 (tATXN3) Protein Assay (MSD immunoassay of cell lysates); assay type: cell-based; details: average IC50, total ATXN3 protein in cell lysate after 48 h with compound (Table 1)
How it was run: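 Cells in DMEM/10% FBS were plated at 10,000 per well onto 7-point, 3.16-fold compound dilutions in duplicate for 48 h at 37° C, then lysed. Total ATXN3 in lysates was measured by MSD sandwich immunoassay: mouse anti-ATXN3 capture, rabbit anti-ATXN3 detection, SULFO-TAG anti-rabbit. Average IC50 was reported in star bins.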

ATXN3 pre-mRNA = assay: RT-qPCR Assay to Quantify Exon 4 Skipping in ATXN3 pre-mRNA in Cells; assay type: cell-based; details: percent exon 4 skipping in ATXN3 pre-mRNA, RT-qPCR of cell lysates; average IC50
How it was run: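 Cells plated at 10,000/well onto a 7-point, 3.16-fold DMSO dilution series (duplicates), incubated 24 h at 37 °C, then lysed. Exon 4 skipping measured by one-step RT-qPCR (48 °C RT, 40 cycles); IC50 interpolated from dose-response fit of percent skipping.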

| Substance | IC50 [1] | IC50 (ATXN3 pre-mRNA) |
| --- | --- | --- |
| 4-(2-((1R,6R)-6-aminocyclohex-3-en-1-yl)-5-chloro-7-((thiophen-2-ylmethyl)amino)thieno[3,2-b]pyridin-3-yl)but-3-yn-1-ol and 4-(2-((1S,6S)-6-aminocyclohex-3-en-1-yl)-5-chloro-7-((thiophen-2-ylmethyl)amino)thieno[3,2-b]pyridin-3-yl)but-3-yn-1-ol [Compound 177] | ≤ 0.03 µM | ≤ 0.03 µM |
| 5-(2-chloro-6-((1R,6R)-6-(methylamino)cyclohex-3-en-1-yl)-4-((thiophen-2-ylmethyl)amino)thieno[3,2-d]pyrimidin-7-yl)pent-4-yn-1-ol and 5-(2-chloro-6-((1S,6S)-6-(methylamino)cyclohex-3-en-1-yl)-4-((thiophen-2-ylmethyl)amino)thieno[3,2-d]pyrimidin-7-yl)pent-4-yn-1-ol [Compound 293] | 0.03 to 0.3 µM | 0.03 to 0.3 µM |
| 5-(5-chloro-2-((1R,6R)-6-(dimethylamino)cyclohex-3-en-1-yl)-7-((thiophen-2-ylmethyl)amino)thieno[3,2-b]pyridin-3-yl)pent-4-yn-1-ol and 5-(5-chloro-2-((1S,6S)-6-(dimethylamino)cyclohex-3-en-1-yl)-7-((thiophen-2-ylmethyl)amino)thieno[3,2-b]pyridin-3-yl)pent-4-yn-1-ol [Compound 454] | 0.3 to 1 µM | 0.3 to 1 µM |
| 5-(5-chloro-2-((1R,6R)-6-(methylamino)cyclohex-3-en-1-yl)-7-((thiophen-2-ylmethyl)amino)thieno[3,2-b]pyridin-3-yl)pent-4-yn-1-ol and 5-(5-chloro-2-((1S,6S)-6-(methylamino)cyclohex-3-en-1-yl)-7-((thiophen-2-ylmethyl)amino)thieno[3,2-b]pyridin-3-yl)pent-4-yn-1-ol [Compound 288] | 0.03 to 0.3 µM | 0.03 to 0.3 µM |
| 5-(5-chloro-2-((2R,3R)-3-(methylamino)tetrahydro-2H-pyran-2-yl)-7-((thiophen-2-ylmethyl)amino)thieno[3,2-b]pyridin-3-yl)pent-4-yn-1-ol and 5-(5-chloro-2-((2S,3S)-3-(methylamino)tetrahydro-2H-pyran-2-yl)-7-((thiophen-2-ylmethyl)amino)thieno[3,2-b]pyridin-3-yl)pent-4-yn-1-ol [Compound 309] | 0.03 to 0.3 µM | 0.03 to 0.3 µM |
| 5-chloro-3-iodo-2-((1R,6R)-6-(methylamino)cyclohex-3-en-1-yl)-N-(thiophen-2-ylmethyl)thieno[3,2-b]pyridin-7-amine and 5-chloro-3-iodo-2-((1S,6S)-6-(methylamino)cyclohex-3-en-1-yl)-N-(thiophen-2-ylmethyl)thieno[3,2-b]pyridin-7-amine [Compound 387] | 0.03 to 0.3 µM | 0.3 to 1 µM |
| 6-((1R,2R)-2-aminocyclohexyl)-N-benzyl-2-chloro-7-methylthieno[3,2-d]pyrimidin-4-amine or 6-((1S,2S)-2-aminocyclohexyl)-N-benzyl-2-chloro-7-methylthieno[3,2-d]pyrimidin-4-amine [Compound 43] | > 1 µM | > 1 µM |
| 6-((1R,2R)-2-aminocyclohexyl)-N-benzyl-2-chloro-7-methylthieno[3,2-d]pyrimidin-4-amine or 6-((1S,2S)-2-aminocyclohexyl)-N-benzyl-2-chloro-7-methylthieno[3,2-d]pyrimidin-4-amine [Compound 48] | 0.03 to 0.3 µM | 0.03 to 0.3 µM |
| 6-((1R,6R)-6-aminocyclohex-3-en-1-yl-2,2,3,4,5,5-d6)-2-chloro-N-(furan-2-ylmethyl)-7-methylthieno[3,2-d]pyrimidin-4-amine and 6-((1S,6S)-6-aminocyclohex-3-en-1-yl-2,2,3,4,5,5-d6)-2-chloro-N-(furan-2-ylmethyl)-7-methylthieno[3,2-d]pyrimidin-4-amine [Compound 297] | 0.03 to 0.3 µM | 0.03 to 0.3 µM |
| 6-((1R,6R)-6-aminocyclohex-3-en-1-yl-2,2,3,4,5,5-d6)-7-bromo-2-chloro-N-(furan-2-ylmethyl)thieno[3,2-d]pyrimidin-4-amine and 6-((1S,6S)-6-aminocyclohex-3-en-1-yl-2,2,3,4,5,5-d6)-7-bromo-2-chloro-N-(furan-2-ylmethyl)thieno[3,2-d]pyrimidin-4-amine [Compound 200] | ≤ 0.03 µM | ≤ 0.03 µM |
| 6-((1R,6R)-6-aminocyclohex-3-en-1-yl-2,2,3,4,5,5-d6)-7-bromo-2-chloro-N-(thiophen-2-ylmethyl)thieno[3,2-d]pyrimidin-4-amine [Compound 372] | 0.03 to 0.3 µM | 0.03 to 0.3 µM |
| 6-((1S,2S)-2-aminocyclohexyl)-2,7-dichloro-5-(difluoromethyl)-N-(furan-2-ylmethyl)-5H-pyrrolo[3,2-d]pyrimidin-4-amine and 6-((1R,2R)-2-aminocyclohexyl)-2,7-dichloro-5-(difluoromethyl)-N-(furan-2-ylmethyl)-5H-pyrrolo[3,2-d]pyrimidin-4-amine [Compound 334] | 0.03 to 0.3 µM | 0.03 to 0.3 µM |
| 6-((1S,2S)-2-aminocyclohexyl)-N-(but-2-yn-1-yl)-2-chloro-7-iodothieno[3,2-d]pyrimidin-4-amine [Compound 286] | 0.03 to 0.3 µM | 0.03 to 0.3 µM |
| 6-((1S,6S)-6-aminocyclohex-3-en-1-yl)-4-((furan-2-ylmethyl)amino)-7-methylthieno[3,2-d]pyrimidine-2-carbonitrile [Compound 282] | 0.03 to 0.3 µM | 0.03 to 0.3 µM |
| 6-((1S,6S)-6-aminocyclohex-3-en-1-yl-2,2,3,4,5,5-d6)-7-bromo-2-chloro-N-(thiophen-2-ylmethyl)thieno[3,2-d]pyrimidin-4-amine [Compound 183] | ≤ 0.03 µM | ≤ 0.03 µM |
| 6-((2R,3R)-3-aminotetrahydro-2H-pyran-2-yl)-2-chloro-N-(furan-2-ylmethyl)-7-iodothieno[3,2-d]pyrimidin-4-amine and 6-((2S,3S)-3-aminotetrahydro-2H-pyran-2-yl)-2-chloro-N-(furan-2-ylmethyl)-7-iodothieno[3,2-d]pyrimidin-4-amine [Compound 243] | ≤ 0.03 µM | ≤ 0.03 µM |
| 6-((2S,3S)-3-aminotetrahydro-2H-pyran-2-yl)-7-bromo-2-chloro-5-(difluoromethyl)-N-(furan-2-ylmethyl)-5H-pyrrolo[3,2-d]pyrimidin-4-amine [Compound 215] | ≤ 0.03 µM | ≤ 0.03 µM |
| 6-((2S,3S)-3-aminotetrahydro-2H-pyran-2-yl)-N-benzyl-2,7-dichloro-5-(difluoromethyl)-5H-pyrrolo[3,2-d]pyrimidin-4-amine and 6-((2R,3R)-3-aminotetrahydro-2H-pyran-2-yl)-N-benzyl-2,7-dichloro-5-(difluoromethyl)-5H-pyrrolo[3,2-d]pyrimidin-4-amine [Compound 392] | 0.3 to 1 µM | 0.03 to 0.3 µM |
| 6-((3R,4S)-3-aminotetrahydro-2H-pyran-4-yl)-2,7-dichloro-N-(furan-2-ylmethyl)thieno[3,2-d]pyrimidin-4-amine and 6-((3S,4R)-3-aminotetrahydro-2H-pyran-4-yl)-2,7-dichloro-N-(furan-2-ylmethyl)thieno[3,2-d]pyrimidin-4-amine [Compound 354] | 0.03 to 0.3 µM | 0.03 to 0.3 µM |
| 6-((3R,4S)-3-aminotetrahydro-2H-pyran-4-yl)-2-chloro-N-(furan-2-ylmethyl)-7-((trimethylsilyl)ethynyl)thieno[3,2-d]pyrimidin-4-amine and 6-((3S,4R)-3-aminotetrahydro-2H-pyran-4-yl)-2-chloro-N-(furan-2-ylmethyl)-7-((trimethylsilyl)ethynyl)thieno[3,2-d]pyrimidin-4-amine [Compound 317] | 0.03 to 0.3 µM | 0.03 to 0.3 µM |
| 6-((3R,4S)-3-aminotetrahydro-2H-pyran-4-yl)-2-chloro-N-(furan-2-ylmethyl)-7-iodothieno[3,2-d]pyrimidin-4-amine and 6-((3S,4R)-3-aminotetrahydro-2H-pyran-4-yl)-2-chloro-N-(furan-2-ylmethyl)-7-iodothieno[3,2-d]pyrimidin-4-amine [Compound 245] | ≤ 0.03 µM | ≤ 0.03 µM |
| 6-((3R,4S)-3-aminotetrahydro-2H-pyran-4-yl)-2-chloro-N-(furan-2-ylmethyl)-7-vinylthieno[3,2-d]pyrimidin-4-amine and 6-((3S,4R)-3-aminotetrahydro-2H-pyran-4-yl)-2-chloro-N-(furan-2-ylmethyl)-7-vinylthieno[3,2-d]pyrimidin-4-amine [Compound 390] | 0.3 to 1 µM | 0.03 to 0.3 µM |
| 6-((3R,4S)-3-aminotetrahydro-2H-pyran-4-yl)-7-bromo-2-chloro-N-(furan-2-ylmethyl)thieno[3,2-d]pyrimidin-4-amine and 6-((3S,4R)-3-aminotetrahydro-2H-pyran-4-yl)-7-bromo-2-chloro-N-(furan-2-ylmethyl)thieno[3,2-d]pyrimidin-4-amine [Compound 339] | 0.03 to 0.3 µM | 0.03 to 0.3 µM |
| 6-((3R,4S)-3-aminotetrahydro-2H-pyran-4-yl)-7-bromo-2-chloro-N-(thiophen-2-ylmethyl)thieno[3,2-d]pyrimidin-4-amine and 6-((3S,4R)-3-aminotetrahydro-2H-pyran-4-yl)-7-bromo-2-chloro-N-(thiophen-2-ylmethyl)thieno[3,2-d]pyrimidin-4-amine [Compound 347] | 0.03 to 0.3 µM | 0.03 to 0.3 µM |
